Patent publication US9198429B2, “Heterocyclic alkanol-derivatives” (BAYER INTELLECTUAL PROPERTY GMBH, priority 2011, dated 2015)
Where “and” joins values, the source holds several entries; their conditions need not be identical. Equal entries are not always repeated.

Tests used:
Sphaerotheca fuliginea [1] = assay: Example E: Sphaerotheca test (cucumber)/protective, comparison with EP-A 395 175; type: in vivo; conditions: application rate 100 ppm, cucumber plants, protective, evaluation 7 days after inoculation
Pyricularia oryzae = type: in vivo; conditions: application rate 1000 ppm, rice plants, protective, evaluation 6 days after inoculation
Sphaerotheca fuliginea [2] = assay: Example A: Sphaerotheca test (cucumber)/protective; type: in vivo; conditions: 500 ppm, cucumber plants, protective, evaluation 7 days after inoculation
[3] = for log P [b]: pH 2.7; for log P [c]: pH 7.8; for log P [a]: pH 2.3
[4] = logP by HPLC on reversed-phase columns (EEC directive 79/831 Annex V.A8)
Pyrenophora teres [5] = assay: Example C: Pyrenophora teres test (barley)/protective; type: in vivo; conditions: 500 ppm, protective, evaluation 7-9 days after inoculation
Alternaria solani = assay: Example B: Alternaria test (tomato)/protective; type: in vivo; conditions: 500 ppm, tomato plants, protective, evaluation 7 days after inoculation
Pyrenophora teres [6] = assay: Example F: Pyrenophora teres test (barley)/protective, comparison with EP-A 409 418; type: in vivo; conditions: application rate 500 ppm, protective, evaluation 7-9 days after inoculation
Uromyces appendiculatus = assay: Example H: Uromyces test (beans)/protective; type: in vivo; conditions: application rate 10 ppm, protective, evaluation 10 days after inoculation
Description: To test for protective activity, young plants are sprayed with the preparation of active compound at the stated application rate. After the spray coating has dried on, the plants are inoculated with an aqueous spore suspension of bean rust (Uromyces appendiculatus) and then remain in an incubation cabin at 100% relative atmospheric humidity and 20° C. for one day. The plants are then placed in a greenhouse at 90% relative atmospheric humidity and a temperature of about 21° C. […]

CC(C)(C)C(O)(CCc1ccc(Cl)cc1)Cc1cncs1 (stereo not drawn)
Efficacy in % (Sphaerotheca fuliginea [1]): 8%

CC(C)(C)C(O)(COc1ccc(Cl)cc1)Cc1cncs1 (stereo not drawn)
Efficacy in % (Sphaerotheca fuliginea [1]): 5%

CC(C)(C)C(O)(COc1ccc(Cl)cc1)c1cncs1 (stereo not drawn)
Efficacy in % (Pyricularia oryzae): 33%

OC(Cc1cncs1)(c1ccc(Cl)cc1)C1(Oc2ccc(F)cc2)CC1 (stereo not drawn) [Compound 2, 1-(4-chlorophenyl)-1-[1-(4-fluorophenoxy)cyclopropyl]-2-(1,3-thiazol-5-yl)ethanol]
Efficacy in % (Sphaerotheca fuliginea [1]): 93% | chromatographic logP (physchem; pH 2.7): 3.62 | chromatographic logP (physchem; pH 7.8): 3.65 | Efficacy (%) (Sphaerotheca fuliginea [2]): 100%

OC(Cc1cnc(Cl)s1)(c1ccc(Cl)cc1)C1(Oc2ccc(F)cc2)CC1 (stereo not drawn) [Compound 3, 1-(4-chlorophenyl)-2-(2-chloro-1,3-thiazol-5-yl)-1-[1-(4-fluorophenoxy)cyclopropyl]ethanol]
chromatographic logP (physchem; pH 2.7): 4.55 | chromatographic logP (physchem; pH 7.8): 4.53

OC(c1cnco1)(c1ccc(F)cc1F)C1(Oc2ccc(F)cc2F)CC1 (stereo not drawn) [Compound 4]
log P [b] [3]: 3.07 | log P [c] [3]: 3.1

OC(c1ccc(Br)cc1)(c1cnco1)C1(Oc2ccccc2)CC1 (stereo not drawn) [Compound 5]
log P [b] [3]: 3.51 | log P [c] [3]: 3.48

OC(c1ccc(Br)cc1)(c1cnco1)C1(Oc2ccc(F)cc2F)CC1 (stereo not drawn) [Compound 6]
log P [b] [3]: 3.59 | log P [c] [3]: 3.56

OC(c1ccc(Br)cc1)(c1cnco1)C1(Oc2ccc(F)cc2)CC1 (stereo not drawn) [Compound 7]
log P [b] [3]: 3.54 | log P [c] [3]: 3.52

OC(c1ccc(Cl)cc1)(c1cnco1)C1(Oc2ccccc2)CC1 (stereo not drawn) [Compound 8, (4-chlorophenyl)(1,3-oxazol-5-yl)(1-phenoxycyclopropyl)methanol]
chromatographic logP (physchem; pH 2.7): 3.37 | chromatographic logP (physchem; pH 7.8): 3.43

CC(C)[Si](c1ncc(C(O)(c2ccc(Cl)cc2)C2(Oc3ccccc3)CC2)o1)(C(C)C)C(C)C (stereo not drawn) [Compound 9, (4-chlorophenyl)(1-phenoxycyclopropyl)[2-(triisopropylsilyl)-1,3-oxazol-5-yl]methanol]
chromatographic logP ([4]; pH 2.7): 7.36 | chromatographic logP ([4]; pH 7.8): 7.36

OC(c1cncs1)(c1ccc(F)cc1F)C1(Oc2ccc(F)cc2F)CC1 (stereo not drawn) [Compound 11, [1-(2,4-difluorophenoxy)cyclopropyl](2,4-difluorophenyl)1,3-thiazol-5-ylmethanol]
chromatographic logP (physchem; pH 2.7): 3.35 | chromatographic logP (physchem; pH 7.8): 3.3 | Efficacy (%) (Sphaerotheca fuliginea [2]): 95%

OC(c1cnc(Cl)s1)(c1ccc(F)cc1F)C1(Oc2ccc(F)cc2F)CC1 (stereo not drawn) [Compound 12, (2-chloro-1,3-thiazol-5-yl)[1-(2,4-difluorophenoxy)cyclopropyl](2,4-difluorophenyl)methanol]
chromatographic logP (physchem; pH 2.7): 4.29 | chromatographic logP (physchem; pH 7.8): 4.23

COc1ccc(OC(C)(C)C(O)(c2cncs2)C(C)(C)C)cc1 (stereo not drawn) [Compound 13]
log P [b] [3]: 3.49^[b] | Efficacy (%) (Pyrenophora teres [5]): 75%

CC(C)(C)C(O)(c1cncs1)C(C)(C)Oc1ccc(I)cc1F (stereo not drawn) [Compound 14]
log P [b] [3]: 4.7^[b]

CC(C)(C)C(O)(c1cncs1)C(C)(C)Oc1ccc(Br)cc1 (stereo not drawn) [Compound 15]
Efficacy (%) (Sphaerotheca fuliginea [2]): 99% | log P [b] [3]: 4.27^[b]

CC(C)(C)C(O)(c1cncs1)C(C)(C)Oc1ccc(Cl)cc1 (stereo not drawn) [Compound 16, 2-(4-chlorophenoxy)-2,4,4-trimethyl-3-(1,3-thiazol-5-yl)pentan-3-ol]
chromatographic logP (physchem; pH 2.7): 4.13 | Efficacy (%) (Sphaerotheca fuliginea [2]): 100%

CC(C)(Cc1ccc(OC(F)(F)F)cc1)C(C)(O)c1cncs1 (stereo not drawn) [Compound 17]
Efficacy (%) (Alternaria solani): 90%

CC(C)(Cc1ccc(Br)cc1)C(C)(O)c1cncs1 (stereo not drawn) [Compound 18]
log P [b] [3]: 3.22^[b]

CC(C)(Cc1ccc(F)cc1Cl)C(C)(O)c1cncs1 (stereo not drawn) [Compound 19]
log P [b] [3]: 3.14^[b]

CC(C)(Cc1ccc(I)cc1)C(C)(O)c1cncs1 (stereo not drawn) [Compound 20]
Efficacy (%) (Alternaria solani): 90% | log P [b] [3]: 3.45^[b]

CC(C)(Cc1ccc(C(F)(F)F)cc1)C(C)(O)c1cncs1 (stereo not drawn) [Compound 21]
log P [b] [3]: 3.34^[b] | Efficacy (%) (Pyrenophora teres [5]): 70%

CC(C)(Cc1ccc(Cl)cc1)C(C)(O)c1cncs1 (stereo not drawn) [Compound 22, 4-(4-chlorophenyl)-3,3-dimethyl-2-(1,3-thiazol-5-yl)butan-2-ol]
chromatographic logP (physchem; pH 2.7): 3.11 | Efficacy (%) (Sphaerotheca fuliginea [2]): 75% | Efficacy in % (Pyricularia oryzae): 78% | Efficacy in % (Pyrenophora teres [6]): 70% | Efficacy (%) (Pyrenophora teres [5]): 70% and 90% | Efficacy in % (Uromyces appendiculatus): 80%

CC(c1ccc(Cl)cc1Cl)C(O)(c1cncs1)C(C)(C)C (stereo not drawn) [Compound 23]
Efficacy (%) (Sphaerotheca fuliginea [2]): 70% | log P [a] [3]: 4.4[a]

CC(c1ccc(F)cc1Cl)C(O)(c1cncs1)C(C)(CF)CF (stereo not drawn) [Compound 25]
Efficacy (%) (Sphaerotheca fuliginea [2]): 93% | log P [b] [3]: 3.46^[b]

CC(c1ccc(F)cc1Cl)C(O)(c1cnc(Cl)s1)C(C)(CF)CF (stereo not drawn) [Compound 26]
log P [a] [3]: 4.51^[a]

CC(C)(C)C(O)(CCc1ccc(Cl)cc1)c1cncs1 (stereo not drawn) [drawing 36, reference compound]
Efficacy in % (Pyrenophora teres [6]): 0%

CC(C)(C)C(O)(CCc1ccc(Cl)cc1)c1cncs1 (stereo not drawn) [drawing 38]
Efficacy in % (Pyricularia oryzae): 22%

CC(C)(C)C(O)(CCc1ccc(Cl)cc1)c1cncs1 (stereo not drawn) [drawing 41, reference compound]
Efficacy in % (Uromyces appendiculatus): 0%
